Assay results taken from PubChem BioAssay (NCI).
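All cell lines were grown in 96-well plates and treated with compound for 48 hours. Definition used: TGI = concentration required for complete inhibition of growth.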

Key:
Experiment in all cases: growth of human tumour cells (NCI), 48 h
786-0 renal = test system: 786-0 renal
A498 renal = test system: A498 renal
A549 NSCLC = test system: A549 NSCLC
ACHN renal = test system: ACHN renal
CAKI-1 renal = test system: CAKI-1 renal
CCRF-CEM leukemia = test system: CCRF-CEM leukemia
COLO 205 colon = test system: COLO 205 colon
DLD-1 colon = test system: DLD-1 colon
DMS 114 small cell lung = test system: DMS 114 small cell lung
DMS 273 small cell lung = test system: DMS 273 small cell lung
EKVX NSCLC = test system: EKVX NSCLC
HCC-2998 colon = test system: HCC-2998 colon
HCT-116 colon = test system: HCT-116 colon
HCT-15 colon = test system: HCT-15 colon
HL-60(TB) leukemia = test system: HL-60(TB) leukemia
HOP-18 NSCLC = test system: HOP-18 NSCLC
HOP-62 NSCLC = test system: HOP-62 NSCLC
HOP-92 NSCLC = test system: HOP-92 NSCLC
HT29 colon = test system: HT29 colon
IGROV1 ovarian = test system: IGROV1 ovarian
K-562 leukemia = test system: K-562 leukemia
KM12 colon = test system: KM12 colon
KM20L2 colon = test system: KM20L2 colon
LOX IMVI melanoma = test system: LOX IMVI melanoma
LXFL 529 NSCLC = test system: LXFL 529 NSCLC
M14 melanoma = test system: M14 melanoma
M19-MEL melanoma = test system: M19-MEL melanoma
MALME-3M melanoma = test system: MALME-3M melanoma
MOLT-4 leukemia = test system: MOLT-4 leukemia
NCI-H226 lung = test system: NCI-H226 lung
NCI-H23 lung = test system: NCI-H23 lung
NCI-H460 lung = test system: NCI-H460 lung
NCI-H522 lung = test system: NCI-H522 lung
OVCAR-3 ovarian = test system: OVCAR-3 ovarian
OVCAR-4 ovarian = test system: OVCAR-4 ovarian
OVCAR-5 ovarian = test system: OVCAR-5 ovarian
OVCAR-8 ovarian = test system: OVCAR-8 ovarian
RPMI-8226 leukemia = test system: RPMI-8226 leukemia
RXF 393 renal = test system: RXF 393 renal
RXF-631 renal = test system: RXF-631 renal
SF-268 CNS = test system: SF-268 CNS
SF-295 CNS = test system: SF-295 CNS
SF-539 CNS = test system: SF-539 CNS
SK-MEL-2 melanoma = test system: SK-MEL-2 melanoma
SK-MEL-28 melanoma = test system: SK-MEL-28 melanoma
SK-MEL-5 melanoma = test system: SK-MEL-5 melanoma
SK-OV-3 ovarian = test system: SK-OV-3 ovarian
SN12C renal = test system: SN12C renal
SNB-19 CNS = test system: SNB-19 CNS
SNB-75 CNS = test system: SNB-75 CNS
SNB-78 CNS = test system: SNB-78 CNS
SR leukemia = test system: SR leukemia
TK-10 renal = test system: TK-10 renal
U251 CNS = test system: U251 CNS
UACC-257 melanoma = test system: UACC-257 melanoma
UACC-62 melanoma = test system: UACC-62 melanoma
UO-31 renal = test system: UO-31 renal
XF 498 CNS = test system: XF 498 CNS

In the case of `CC(C)(C)c1cc(Oc2ccc(C#N)c(C#N)c2)cc(C(C)(C)C)c1`, the TGI (786-0 renal) is reported as over 100 µM, the TGI (A498 renal) is reported as over 100 µM and the TGI (A549 NSCLC) is reported as over 100 µM. For the same compound, the TGI (ACHN renal) was over 100 µM, the TGI (CAKI-1 renal) was over 100 µM and the TGI (CCRF-CEM leukemia) was over 100 µM. For the same compound, the TGI (COLO 205 colon) was over 100 µM, the TGI (DLD-1 colon) was over 100 µM and the TGI (DMS 114 small cell lung) was over 100 µM. The TGI (DMS 273 small cell lung) was 27.1 µM, the TGI (EKVX NSCLC) was over 100 µM and the TGI (HCC-2998 colon) was over 100 µM. The TGI (HCT-116 colon) was over 100 µM, the TGI (HCT-15 colon) was over 100 µM and the TGI (HL-60(TB) leukemia) was over 100 µM. For the same compound, the TGI (HOP-18 NSCLC) was over 100 µM, the TGI (HOP-62 NSCLC) was over 100 µM and the TGI (HOP-92 NSCLC) was over 100 µM. It also gave a TGI (HT29 colon) of over 100 µM, a TGI (IGROV1 ovarian) of over 100 µM and a TGI (K-562 leukemia) of over 100 µM. It also gave a TGI (KM12 colon) of over 100 µM, a TGI (KM20L2 colon) of over 100 µM and a TGI (LOX IMVI melanoma) of 94.6 µM. For the same compound, the TGI (LXFL 529 NSCLC) was over 100 µM, the TGI (M14 melanoma) was over 100 µM and the TGI (M19-MEL melanoma) was over 100 µM. For the same compound, the TGI (MALME-3M melanoma) was over 100 µM, the TGI (MOLT-4 leukemia) was over 100 µM and the TGI (NCI-H226 lung) was over 100 µM. It also gave a TGI (NCI-H23 lung) of over 100 µM, a TGI (NCI-H460 lung) of over 100 µM and a TGI (NCI-H522 lung) of over 100 µM. For the same compound, the TGI (OVCAR-3 ovarian) was over 100 µM, the TGI (OVCAR-4 ovarian) was over 100 µM and the TGI (OVCAR-5 ovarian) was over 100 µM. For the same compound, the TGI (OVCAR-8 ovarian) was over 100 µM, the TGI (RPMI-8226 leukemia) was over 100 µM and the TGI (RXF 393 renal) was over 100 µM. It also gave a TGI (RXF-631 renal) of over 100 µM, a TGI (SF-268 CNS) of over 100 µM and a TGI (SF-295 CNS) of over 100 µM. It also gave a TGI (SF-539 CNS) of over 100 µM, a TGI (SK-MEL-2 melanoma) of over 100 µM and a TGI (SK-MEL-28 melanoma) of over 100 µM. The TGI (SK-MEL-5 melanoma) was over 100 µM, the TGI (SK-OV-3 ovarian) was over 100 µM and the TGI (SN12C renal) was over 100 µM. It also gave a TGI (SNB-19 CNS) of over 100 µM, a TGI (SNB-75 CNS) of over 100 µM and a TGI (SNB-78 CNS) of over 100 µM. For the same compound, the TGI (SR leukemia) was 42.3 µM, the TGI (TK-10 renal) was over 100 µM and the TGI (U251 CNS) was over 100 µM. The TGI (UACC-257 melanoma) was over 100 µM, the TGI (UACC-62 melanoma) was over 100 µM and the TGI (UO-31 renal) was over 100 µM. It also gave a TGI (XF 498 CNS) of over 100 µM.
